Source: the supplement of paper PMC10307832

Tests used:
Assay in all cases: relative viability (nuclei count vs DMSO), 5 days (fraction); higher = more cells survive
UMC-11 = system: UMC-11
Procedure, shortened: (§1)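 Five library-drug doses in √10 steps were combined with a fixed anchor-drug dose, or a single drug was given alone, by pin tool to lung cancer cell lines in 1536-well plates the day after seeding. Nuclei were stained and counted after 5 days. Relative viability is the nuclei count in treated wells over that in vehicle wells, taken as the median of duplicate plates.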

NCI-H2009 = system: NCI-H2009
Procedure, shortened: as §1

NCI-H1650 = system: NCI-H1650
Procedure, shortened: as §1

A-427 = system: A-427
Procedure, shortened: as §1

NCI-H1734 = system: NCI-H1734
Procedure, shortened: as §1

LK-2 = system: LK-2
Procedure, shortened: as §1

CAL-12T = system: CAL-12T
Procedure, shortened: as §1

NCI-H1648 = system: NCI-H1648
Procedure, shortened: as §1

NCI-H1299 = system: NCI-H1299
Procedure, shortened: as §1

EBC-1 = system: EBC-1
Procedure, shortened: as §1

IA-LM = system: IA-LM
Procedure, shortened: as §1

NCI-H1703 = system: NCI-H1703
Procedure, shortened: as §1

Calu-6 = system: Calu-6
Procedure, shortened: as §1

A549 = system: A549
Procedure, shortened: as §1

## CC(=O)O[C@@]12CO[C@@H]1C[C@H](O)[C@@]1(C)C(=O)[C@H](O)C3=C(C)[C@@H](OC(=O)[C@H](O)[C@@H](NC(=O)OC(C)(C)C)c4ccccc4)C[C@@](O)([C@@H](OC(=O)c4ccccc4)[C@H]21)C3(C)C [Docetaxel] + Nc1nc2[nH]cc(CCc3ccc(C(=O)N[C@@H](CCC(=O)O)C(=O)O)cc3)c2c(=O)[nH]1 [Pemetrexed] (partner 0.2 µM)
UMC-11; first compound 0.0002 µM
  relative viability: 0.717
UMC-11; first compound 0.000632 µM
  relative viability: 0.698
UMC-11; first compound 0.002 µM
  relative viability: 0.325
UMC-11; first compound 0.006325 µM
  relative viability: 0.256
UMC-11; first compound 0.02 µM
  relative viability: 0.195
NCI-H2009; first compound 0.0002 µM
  relative viability: 0.946
NCI-H2009; first compound 0.000632 µM
  relative viability: 1.03
NCI-H2009; first compound 0.002 µM
  relative viability: 0.956
NCI-H2009; first compound 0.006325 µM
  relative viability: 0.733
NCI-H2009; first compound 0.02 µM
  relative viability: 0.27
NCI-H1650; first compound 0.0002 µM
  relative viability: 0.387
NCI-H1650; first compound 0.000632 µM
  relative viability: 0.412
NCI-H1650; first compound 0.002 µM
  relative viability: 0.28
NCI-H1650; first compound 0.006325 µM
  relative viability: 0.263
NCI-H1650; first compound 0.02 µM
  relative viability: 0.158
A-427; first compound 0.0002 µM
  relative viability: 0.886
A-427; first compound 0.000632 µM
  relative viability: 0.946
A-427; first compound 0.002 µM
  relative viability: 0.822
A-427; first compound 0.006325 µM
  relative viability: 0.323
NCI-H1734; first compound 0.0002 µM
  relative viability: 0.425
NCI-H1734; first compound 0.000632 µM
  relative viability: 0.521
NCI-H1734; first compound 0.002 µM
  relative viability: 0.405
NCI-H1734; first compound 0.006325 µM
  relative viability: 0.303
NCI-H1734; first compound 0.02 µM
  relative viability: 0.239
LK-2; first compound 0.0002 µM
  relative viability: 0.172
LK-2; first compound 0.000632 µM
  relative viability: 0.217
LK-2; first compound 0.002 µM
  relative viability: 0.163
LK-2; first compound 0.006325 µM
  relative viability: 0.119
LK-2; first compound 0.02 µM
  relative viability: 0.131
CAL-12T; first compound 0.0002 µM
  relative viability: 1.08
CAL-12T; first compound 0.000632 µM
  relative viability: 0.83
CAL-12T; first compound 0.002 µM
  relative viability: 0.241
CAL-12T; first compound 0.006325 µM
  relative viability: 0.272
CAL-12T; first compound 0.02 µM
  relative viability: 0.19
NCI-H1648; first compound 0.0002 µM
  relative viability: 0.73
NCI-H1648; first compound 0.000632 µM
  relative viability: 0.758
NCI-H1648; first compound 0.002 µM
  relative viability: 0.386
NCI-H1648; first compound 0.006325 µM
  relative viability: 0.186
NCI-H1648; first compound 0.02 µM
  relative viability: 0.231

## CC(=O)O[C@@]12CO[C@@H]1C[C@H](O)[C@@]1(C)C(=O)[C@H](O)C3=C(C)[C@@H](OC(=O)[C@H](O)[C@@H](NC(=O)OC(C)(C)C)c4ccccc4)C[C@@](O)([C@@H](OC(=O)c4ccccc4)[C@H]21)C3(C)C [Docetaxel] + CS(=O)(=O)N1CCN(Cc2cc3nc(-c4cccc5[nH]ncc45)nc(N4CCOCC4)c3s2)CC1 [Pictilisib] (partner 1 µM)
NCI-H1299; first compound 0.0002 µM
  relative viability: 0.761
NCI-H1299; first compound 0.000632 µM
  relative viability: 0.579
NCI-H1299; first compound 0.002 µM
  relative viability: 0.305
NCI-H1299; first compound 0.006325 µM
  relative viability: 0.14
NCI-H1299; first compound 0.02 µM
  relative viability: 0.109
EBC-1; first compound 0.0002 µM
  relative viability: 0.347
EBC-1; first compound 0.000632 µM
  relative viability: 0.267
EBC-1; first compound 0.002 µM
  relative viability: 0.189
EBC-1; first compound 0.006325 µM
  relative viability: 0.164
UMC-11; first compound 0.0002 µM
  relative viability: 0.799
UMC-11; first compound 0.000632 µM
  relative viability: 0.835
UMC-11; first compound 0.002 µM
  relative viability: 0.245
UMC-11; first compound 0.006325 µM
  relative viability: 0.226
UMC-11; first compound 0.02 µM
  relative viability: 0.136
NCI-H2009; first compound 0.0002 µM
  relative viability: 0.696
NCI-H2009; first compound 0.000632 µM
  relative viability: 0.747
NCI-H2009; first compound 0.002 µM
  relative viability: 0.447
NCI-H2009; first compound 0.006325 µM
  relative viability: 0.203
NCI-H2009; first compound 0.02 µM
  relative viability: 0.129
NCI-H1650; first compound 0.0002 µM
  relative viability: 0.431
NCI-H1650; first compound 0.000632 µM
  relative viability: 0.289
NCI-H1650; first compound 0.002 µM
  relative viability: 0.241
NCI-H1650; first compound 0.006325 µM
  relative viability: 0.146
NCI-H1650; first compound 0.02 µM
  relative viability: 0.13
A-427; first compound 0.0002 µM
  relative viability: 0.766
A-427; first compound 0.000632 µM
  relative viability: 0.885
A-427; first compound 0.002 µM
  relative viability: 0.488
A-427; first compound 0.006325 µM
  relative viability: 0.23
A-427; first compound 0.02 µM
  relative viability: 0.158
NCI-H1734; first compound 0.0002 µM
  relative viability: 0.462
NCI-H1734; first compound 0.000632 µM
  relative viability: 0.387
NCI-H1734; first compound 0.002 µM
  relative viability: 0.347
NCI-H1734; first compound 0.006325 µM
  relative viability: 0.335
NCI-H1734; first compound 0.02 µM
  relative viability: 0.213
LK-2; first compound 0.0002 µM
  relative viability: 0.496
LK-2; first compound 0.000632 µM
  relative viability: 0.404
LK-2; first compound 0.002 µM
  relative viability: 0.216
LK-2; first compound 0.006325 µM
  relative viability: 0.25
LK-2; first compound 0.02 µM
  relative viability: 0.203
IA-LM; first compound 0.0002 µM
  relative viability: 0.183
IA-LM; first compound 0.000632 µM
  relative viability: 0.11
IA-LM; first compound 0.002 µM
  relative viability: 0.0755
IA-LM; first compound 0.006325 µM
  relative viability: 0.0696
IA-LM; first compound 0.02 µM
  relative viability: 0.064
CAL-12T; first compound 0.0002 µM
  relative viability: 0.53
CAL-12T; first compound 0.000632 µM
  relative viability: 0.271
CAL-12T; first compound 0.002 µM
  relative viability: 0.268
CAL-12T; first compound 0.006325 µM
  relative viability: 0.24
CAL-12T; first compound 0.02 µM
  relative viability: 0.171
NCI-H1703; first compound 0.0002 µM
  relative viability: 0.235
NCI-H1703; first compound 0.000632 µM
  relative viability: 0.26
NCI-H1703; first compound 0.002 µM
  relative viability: 0.2
NCI-H1703; first compound 0.006325 µM
  relative viability: 0.161
NCI-H1703; first compound 0.02 µM
  relative viability: 0.136
Calu-6; first compound 0.0002 µM
  relative viability: 0.937
Calu-6; first compound 0.000632 µM
  relative viability: 0.754
Calu-6; first compound 0.006325 µM
  relative viability: 0.128
Calu-6; first compound 0.02 µM
  relative viability: 0.0823
A549; first compound 0.0002 µM
  relative viability: 0.44
A549; first compound 0.000632 µM
  relative viability: 0.22
A549; first compound 0.002 µM
  relative viability: 0.0741
A549; first compound 0.006325 µM
  relative viability: 0.0602
A549; first compound 0.02 µM
  relative viability: 0.035
